Source: US20050154230A1, “Urea derivatives” (Bayer HealthCare AG, priority 2001, published 2005)
Read-outs that look alike come from different tables or passages of the source.

Assays:
human VR1 = target: T1, human VR1 (Homo sapiens, UniProt Q8NER1); assay: Capsaicin-induced Ca2+ influx in the human VR1-transfected CHO cell line (Assay 1); assay type: cell-based
T1 construct: expressed in transfected cells
Protocol: [Measurement of Capsaicin-Induced Ca^2+ Influx in the Human VR1-Transfected CHO Cell Line] (Assay 1)
(1) Establishment of the Human VR1-CHOluc9aeq Cell Line
The cloned hVR1 cDNA was constructed with pcDNA3 vector and transfected into a CHOluc9aeq cell line. The cell line contains aequorin and CRE-luciferase reporter genes as read-out signals. The transfectants were cloned by limiting dilution in selection medium (DMEM/F12 medium (Gibco BRL) supplemented with 10% FCS, 1.4 mM Sodium pyruvate, 20 mM HEPES, 0.15% Sodium bicarbonate, 100 U/ml penicillin, 100 μg/ml streptomycin, 2 mM glutamine, non-essential amino acids and 2 mg/ml G418). Ca^2+ influx was examined in the capsaicin-stimulated clones. […] The human VR1-CHOluc9aeq cells were maintained in the selection medium and passaged every 3-4 days at 1-2.5×10^5 cells/flask ([…]).
(2) Measurement of Ca^2+ Influx Using FDSS-3000
Human VR1-CHOluc9aeq cells were suspended in a culture medium which is the same as the selection medium except for G418 and seeded at a density of 1,000 cells per well into 384-well plates (black walled clear-base/Nalge Nunc International). […] After washing twice with assay buffer the cells were incubated with a test compound or vehicle for 20 min at 25° C. […] Integral R was calculated and compared with controls.

[1] = human VR1-CHOluc9aeq cells, 10 nM capsaicin, compound purity about 40 to 90%, read-out: hVR1 class

T1 sequence (Q8NER1 whole entry): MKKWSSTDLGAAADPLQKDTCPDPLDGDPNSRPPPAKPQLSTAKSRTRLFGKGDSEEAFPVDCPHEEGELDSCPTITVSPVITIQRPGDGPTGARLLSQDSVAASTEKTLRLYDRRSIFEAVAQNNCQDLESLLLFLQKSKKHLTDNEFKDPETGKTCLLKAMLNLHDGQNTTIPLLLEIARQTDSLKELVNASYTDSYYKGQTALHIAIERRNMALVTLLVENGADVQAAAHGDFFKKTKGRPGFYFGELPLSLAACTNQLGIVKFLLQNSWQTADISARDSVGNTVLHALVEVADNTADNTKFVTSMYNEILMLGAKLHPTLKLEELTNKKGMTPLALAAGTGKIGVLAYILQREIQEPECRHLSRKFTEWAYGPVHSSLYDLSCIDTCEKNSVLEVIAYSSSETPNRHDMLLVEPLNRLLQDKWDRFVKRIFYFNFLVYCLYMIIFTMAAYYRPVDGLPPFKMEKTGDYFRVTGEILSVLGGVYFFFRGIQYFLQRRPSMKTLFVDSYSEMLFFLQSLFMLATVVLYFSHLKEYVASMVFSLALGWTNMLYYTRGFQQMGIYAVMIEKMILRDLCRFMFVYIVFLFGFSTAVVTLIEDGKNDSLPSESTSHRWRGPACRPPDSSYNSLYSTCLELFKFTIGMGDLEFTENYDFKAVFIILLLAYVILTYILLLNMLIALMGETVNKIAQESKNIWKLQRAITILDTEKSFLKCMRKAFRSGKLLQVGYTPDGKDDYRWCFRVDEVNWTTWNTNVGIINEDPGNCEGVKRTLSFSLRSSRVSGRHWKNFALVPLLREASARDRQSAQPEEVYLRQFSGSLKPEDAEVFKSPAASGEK

IC50 (human VR1; [1]) [nM]	melting point	SMILES	IC50 (human VR1) [nM]
500 to 1000	174 to 176 °C (dec.)	O=C(Nc1ccc(F)cc1F)Nc1ccccc1CCO [Example 145]	
< 100	141 to 143 °C	COc1ccc(Cl)cc1-c1cccc(NC(=O)Nc2ccccc2CCO)c1 [Example 227]	
< 100	198 °C	O=C(Nc1cccc(-c2ccc(C(F)(F)F)cc2)c1)Nc1ccccc1CCO [Example 222]	
500 to 1000	187 to 188 °C	CN(C)c1ccc(NC(=O)Nc2ccccc2CCO)cc1 [Example 122]	
500 to 1000	165 to 167 °C	O=C(NCc1ccc(F)cc1)Nc1ccccc1CCO [Example 121]	
< 100	195 °C	O=C(Nc1cccc(-c2cccs2)c1)Nc1ccccc1CCO [Example 203]	
100 to 500	201 °C	O=C(Nc1ccc(Cl)c(C(F)(F)F)c1)Nc1cccc(C(F)(F)F)c1CCO [Example 254]	
< 100	207 °C	COc1cc(CNC(=O)Nc2ccc(Cl)c(Cl)c2)ccc1O [Example 71]	
< 100	181 °C	O=C(Nc1cccc(-c2ccc(F)c(F)c2)c1)Nc1ccccc1CCO [Example 207]	
500 to 1000	112 to 114 °C	O=C(Nc1ccccc1CCO)Nc1ccccc1[N+](=O)[O-] [Example 147]	
< 100	169 °C	O=C(Nc1cccc(-c2cc(F)cc(F)c2)c1)Nc1ccccc1CCO [Example 208]	
500 to 1000	162 to 164 °C	O=C(Nc1ccccc1CCO)Nc1ccccc1Cc1ccccc1 [Example 157]	
500 to 1000	183 °C	O=C(Nc1cc([N+](=O)[O-])ccc1F)Nc1ccccc1CCO [Example 112]	
500 to 1000	195 to 196 °C	Cc1ccc(NC(=O)Nc2ccccc2CCO)cc1Cl [Example 148]	
500 to 1000	159 to 161 °C	O=C(Nc1ccccc1CCO)Nc1cccc(F)c1F [Example 182]	
< 100	161 to 162 °C	COc1cc(NC(=O)Nc2ccccc2CCO)cc(C(F)(F)F)c1 [Example 188]	
500 to 1000	189 to 190 °C	COc1ccc(NC(=O)Nc2ccccc2CCO)c(OC)c1 [Example 150]	
< 100	142 °C	O=C(Nc1cccc(-c2cc(Cl)ccc2Cl)c1)Nc1ccccc1CCO [Example 209]	
500 to 1000	162 to 164 °C	O=C(Nc1ccc(F)c(F)c1)Nc1ccccc1CCO [Example 179]	
< 100	164 to 168 °C (dec.)	Cc1ccc(Oc2ccc(NC(=O)Nc3ccccc3CCO)cc2)cc1 [Example 176]	
100 to 500	180 °C	COc1cc(CNC(=O)Nc2ccc(Cl)c([N+](=O)[O-])c2)ccc1O [Example 64]	

IC50 (human VR1; [1]) [nM]	melting point	SMILES	IC50 (human VR1) [nM]
500 to 1000	208 °C	COc1cc(CNC(=O)Nc2cc([N+](=O)[O-])ccc2F)ccc1O [Example 65]	
< 100	194 °C	Cc1ccc(-c2cccc(NC(=O)Nc3ccccc3CCO)c2)cc1Cl [Example 248]	
< 100	133 °C	CCOC(=O)c1cccc(-c2cccc(NC(=O)Nc3ccccc3CCO)c2)c1 [Example 226]	
500 to 1000	186 °C	Cc1cccc(NC(=O)Nc2ccccc2CCO)c1 [Example 129]	
500 to 1000	178.9 °C	O=C(Nc1cccc(-c2cccnc2)c1)Nc1ccccc1CCO [Example 212]	
100 to 500	130 °C	COc1ccccc1-c1cccc(NC(=O)Nc2ccccc2CCO)c1 [Example 205]	
< 100	180 to 182 °C	N#Cc1ccc(-c2cccc(NC(=O)Nc3ccccc3CCO)c2)cc1 [Example 230]	
500 to 1000	180 to 181 °C	COc1cccc(OC)c1-c1cccc(NC(=O)Nc2ccccc2CCO)c1 [Example 231]	
< 100	170 to 172 °C	O=C(Nc1ccc(Cl)c(-c2ccc(Cl)cc2)c1)Nc1ccccc1CCO [Example 218]	
100 to 500	214 to 216 °C	O=C(Nc1cc(Cl)cc(Cl)c1)Nc1ccccc1CCO [Example 109]	
500 to 1000	190 to 191 °C	O=C(Nc1ccccc1CCO)Nc1ccccc1Oc1ccccc1 [Example 160]	
< 100	205 °C	CC(=O)c1ccc(-c2cccc(NC(=O)Nc3ccccc3CCO)c2)cc1 [Example 224]	
500 to 1000	128 °C	COC(=O)c1ccccc1NC(=O)Nc1ccccc1CCO [Example 118]	
100 to 500	170 °C	O=C(Nc1ccc(Cl)c([N+](=O)[O-])c1)Nc1ccccc1CCO [Example 113]	
< 100	190 °C	O=C(Nc1cccc(-c2ccoc2)c1)Nc1ccccc1CCO [Example 247]	
< 100	201 °C	Cc1cccc(NC(=O)Nc2ccc(Cl)c(C(F)(F)F)c2)c1CCO [Example 256]	
500 to 1000	175 to 177 °C	COc1ccc(CNC(=O)Nc2ccccc2CCO)cc1 [Example 127]	
500 to 1000	243 °C	Cc1cc(C)c(NC(=O)Nc2ccccc2CCO)c(C)c1 [Example 115]	
100 to 500	170 °C	COc1ccc(OC)c(-c2cccc(NC(=O)Nc3ccccc3CCO)c2)c1 [Example 198]	
500 to 1000	208 °C	O=C(Nc1ccc(Br)cc1)Nc1ccccc1CCO [Example 114]	
< 100	193 °C	COc1cc(CNC(=O)Nc2ccc(Cl)c(C(F)(F)F)c2)ccc1O [Example 55]	

IC50 (human VR1; [1]) [nM]	melting point	SMILES	IC50 (human VR1) [nM]
500 to 1000	186 to 187 °C	COc1ccc(NC(=O)Nc2ccccc2CCO)cc1OC [Example 219]	
< 100	161 to 164 °C	O=C(Nc1ccc(Br)c(C(F)(F)F)c1)Nc1ccccc1CCO [Example 185]	
100 to 500	185 °C	O=C(Nc1ccc(Cl)c(-c2ccccc2)c1)Nc1ccccc1CCO [Example 202]	
< 100	171 to 172 °C	O=C(Nc1cccc(-c2ccccc2F)c1)Nc1ccccc1CCO [Example 210]	
500 to 1000	226 °C	Cc1cccc(C)c1NC(=O)Nc1ccccc1CCO [Example 116]	
100 to 500	194 °C	O=C(Nc1ccc(-c2ccccc2)cc1)Nc1ccccc1CCO [Example 201]	
< 100	150 °C	O=C(Nc1cccc(-c2cc(F)ccc2F)c1)Nc1ccccc1CCO [Example 213]	
500 to 1000	170 to 172 °C	Cc1ccccc1Oc1ccccc1NC(=O)Nc1ccccc1CCO [Example 175]	
500 to 1000	207 °C	Cc1ccc2cc(NC(=O)Nc3ccccc3CCO)ccc2n1 [Example 165]	
100 to 500	186 to 187 °C	N#Cc1ccc(NC(=O)Nc2ccccc2CCO)cc1Cl [Example 191]	
100 to 500	197 °C	O=C(Nc1ccc(-c2ccc(F)cc2)cc1)Nc1ccccc1CCO [Example 192]	
< 100	182 to 183 °C	O=C(Nc1ccccc1CCO)Nc1cccc2c1Cc1ccccc1-2 [Example 253]	
500 to 1000	204 °C	Cc1ccc2ccccc2c1NC(=O)Nc1ccccc1CCO [Example 164]	
500 to 1000	144 °C	COc1cc(CNC(=O)Nc2ccccc2OC)ccc1O [Example 57]	
100 to 500	178 °C	O=C(Nc1ccc(-c2ccccc2)c(Cl)c1)Nc1ccccc1CCO [Example 244]	
100 to 500	173 °C	O=C(Nc1ccc(Cl)c(C(F)(F)F)c1)Nc1cccc(-c2ccccc2)c1CCO [Example 257]	
500 to 1000	148 to 150 °C	Cc1cccc(CNC(=O)Nc2ccccc2CCO)c1 [Example 124]	
< 100	178 °C	Cc1ccc(-c2cccc(NC(=O)Nc3ccccc3CCO)c2)cc1 [Example 200]	
500 to 1000	133 °C	COc1cccc(NC(=O)NCc2ccc(O)c(OC)c2)c1 [Example 34]	
	130 °C	COc1cc2c(cc1O)CN(C(=O)Nc1ccc(Cl)c(C(F)(F)F)c1)CC2 [Example 78]	

SMILES	IC50 (human VR1; [1]) [nM]	melting point	IC50 (human VR1) [nM]
N#Cc1ccc(NC(=O)Nc2ccccc2CCO)cc1C(F)(F)F [Example 186]		171 °C	< 100
COc1cc(CNC(=O)Nc2ccc(F)c([N+](=O)[O-])c2)ccc1O [Example 66]		184 °C	100 to 500
COc1cc(CNC(=O)Nc2cccc3ccccc23)ccc1O [Example 70]		149 °C	< 100
COc1cc(CNC(=O)Nc2c(C)cc(C)cc2C)ccc1O [Example 72]	500 to 1000	217 °C	
